# Peptide text beside a SMILES is read from it. * marks the point of attachment. Cbz = O=C(OCc1ccccc1)*; CF3 = FC(F)(F)*
# Molecular target: SARS-CoV 3CL^pro (Severe acute respiratory syndrome coronavirus, UniProt P0C6X7)
# Format: biochemical
structure (smiles),measurement,value
"CC(C)C[C@H](NC(=O)[C@@H](NC(=O)[C@H](C)NC(=O)OCc1ccccc1)C(C)C)C(=O)N[C@@H](CCC(N)=O)C(=O)C(F)(F)F [Compound 4, (S)-4-[N-(Benzyloxycarbonyl)-L-alanyl-L-valyl-L-leucyl]amino-6,6,6-trifluoro-5-oxohexanamide] (Cbz-AVLQ-CF3)",inhibitory activity in words,moderate SARS-CoV 3CL^pro inhibitors

# Reference: publication PMC7111793 (Tetrahedron, 2006)
